Test results as given in patent US20210154170A1, “METHODS OF TREATING NEUROPATHIC PAIN” (Biogen MA Inc., priority 2018, published 2021).
Like-named read-outs stand apart in the source and are kept apart here.

Legend:
[1] = system: rat model of inflammation (mechanical hypersensitivity); format: in vivo
Protocol: For all doses, the C Trough is higher than efficacious doses in animal model of inflammation. […] FCA1, an oral dose of 1 mg/kg was the minimal effective dose in this model. TGN (trigeminal neuralgia), PLSR (painful lumbosacral radiculopathy).
In this model, inflammation was induced by intraplantar injection of Freud Complete Adjuvant.
Mechanical hypersensitivity was then assessed using weight bearing.

healthy subjects = experiment: Phase 1 valproic acid interaction study, safety and tolerability
Excerpt: • To evaluate the safety and tolerability of BIIB074 when administered alone and when coadministered with the UGT inhibitor valproic acid. • The endpoints that relate to this objective are the incidence of adverse events (AEs) and serious adverse events (SAEs), and changes in clinical laboratory parameters, vital signs, 12-lead electrocardiograms (ECGs), and Columbia Suicide Severity Rating Scale (C-SSRS) assessments. • To evaluate the effect of the UGT inhibitor valproic acid on the PK of the M13, M14, and M16 metabolites of BIIB074. • The endpoints that relate to this objective are: Cmax, AUCinf, AUClast, Tmax, Tlast, t1/2, and metabolite to parent ratio in AUC (MRAUC) of the M13, M14, and M16 metabolites of BIIB074
1. A single oral dose of BIIB074 administered in the morning on Days 1 and 16 following an 8-hour fast. The Day 16 dose was coadministered with the morning dose of valproic acid. 2. Valproic acid 500 mg TID was administered on Days 8 through 22. The morning dose on Day 16 was coadministered with BIIB074 following an 8-hour fast. 3. Blood samples for BIIB074 and metabolite PK collected predose and through 168 hours postdose on Days 1 through 8 and Days 16 through 23. 4. Single blood samples collected on Days 13 through 15 prior to the morning dose of valproic acid only, in order to determine valproic acid trough levels.

[2] = Phase 1 study of effect of UGT inhibition by valproic acid on PK of BIIB074; format: in vivo, human; conditions: for AUC(0-inf) / AUC(0-t) / Cmax: human, plasma, oral; for AUC(0-inf): read-out: AUCinf, Geo LS mean; for AUC(0-t): read-out: AUClast, Geo LS mean; for Cmax: read-out: Cmax, Geo LS mean
Excerpt: In clinical practice BIIB074 may be coadministered with UGT inhibitors, which could potentially increase exposure to BIIB074 by reducing the extent of BIIB074 metabolism by UGTs. Valproic acid, which has long been used as a medication to treat seizures and bipolar disorder, is a non specific inhibitor of UGTs and has been used as a probe to determine the effect of UGT inhibition on the PK of compounds that are metabolized by multiple UGTs. Herein, the potential of the UGT inhibitor valproic acid to alter the single dose PK, safety, and tolerability of BIIB074 was assessed to inform the feasibility and safety of coadministration of BIIB074 with compounds known to inhibit UGTs.
• To evaluate the effect of multiple doses of the uridine diphosphate glucuronosyltransferase (UGT) inhibitor valproic acid on the single dose PK of BIIB074. • The primary endpoints that relate to this objective are: maximum observed concentration (Cmax), area under the curve (AUC) from time 0 to infinity (AUCinf), and AUC from time 0 to time of the last measurable concentration (AUClast) for BIIB074. • Other endpoints that relate to the primary objective are the time to reach Cmax (Tmax), time of the last measurable concentration (Tlast), t1/2 apparent clearance (CL/F), and apparent volume of distribution (V/F) for BIIB074.

[3] = BIIB074 with valproic acid/BIIB074 alone
[4] = single dose BIIB074 with valproic acid

Cl.NC(=O)[C@@H]1CC[C@H](c2ccc(OCc3ccccc3F)cc2)N1 [Example 1, (5R)-5-(4-{[(2-Fluorophenyl)methyl]oxy}phenyl)-L-prolinamide hydrochloride]
Reversal of mechanical hypersensitivity ([1]; 5 mg/kg oral): fully reversed
Human scaled equivalent total plasma exposure where robust efficacy was observed ([1]; rat, in vivo): 786 ng/mL
Abdominal pain (healthy subjects; human, in vivo): 0 n (%)
Asthenia (healthy subjects; human, in vivo): 0 n (%)
Cardiac disorders (healthy subjects; human, in vivo): 0 n (%)
Diarrhoea (healthy subjects; human, in vivo): 0 n (%)
Dizziness (healthy subjects; human, in vivo): 0 n (%)
Dyspepsia (healthy subjects; human, in vivo): 0 n (%)
Events leading to drug withdrawal (healthy subjects; human, in vivo): 0 n (%)
Events leading to study withdrawal (healthy subjects; human, in vivo): 0 n (%)
Faeces soft (healthy subjects; human, in vivo): 0 n (%)
Gastrointestinal disorders (healthy subjects; human, in vivo): 1 (3.3) n (%)
General disorders and administration site conditions (healthy subjects; human, in vivo): 0 n (%)
Glossodynia (healthy subjects; human, in vivo): 1 (3.3) n (%)
Headache (healthy subjects; human, in vivo): 1 (3.3) n (%)
Nausea (healthy subjects; human, in vivo): 0 n (%)
Nervous system disorders (healthy subjects; human, in vivo): 1 (3.3) n (%)
Non-cardiac chest pain (healthy subjects; human, in vivo): 0 n (%)
Number of subjects with any event (healthy subjects; human, in vivo): 2 (6.7) n (%)
Pallor (healthy subjects; human, in vivo): 0 n (%)
Palpitations (healthy subjects; human, in vivo): 0 n (%)
Pruritus (healthy subjects; human, in vivo): 0 n (%)
Related event (healthy subjects; human, in vivo): 0 n (%)
Related serious event (healthy subjects; human, in vivo): 0 n (%)
Serious event (healthy subjects; human, in vivo): 0 n (%)
Severity: Mild (healthy subjects; human, in vivo): 2 (6.7) n (%)
Severity: Moderate (healthy subjects; human, in vivo): 0 n (%)
Severity: Severe (healthy subjects; human, in vivo): 0 n (%)
Skin and subcutaneous tissue disorders (healthy subjects; human, in vivo): 0 n (%)
TEAEs considered related to BIIB074 (healthy subjects; human, in vivo): No TEAEs were considered related to BIIB074
Vascular disorders (healthy subjects; human, in vivo): 0 n (%)
Vomiting (healthy subjects; human, in vivo): 0 n (%)
Safety conclusion (healthy subjects; in vivo): safe and well tolerated
Fatal event (healthy subjects; per treatment period): 0 n (%)
AUCinf, Geo LS mean ratio [2, 3]: 1.68
AUClast, Geo LS mean ratio [2, 3]: 1.69
Cmax, Geo LS mean ratio [2, 3]: 0.97
AUC(0-inf) ([2]; single dose BIIB074 alone): 16000 ng·h/mL
AUC(0-t) ([2]; single dose BIIB074 alone): 15700 ng·h/mL
Cmax ([2]; single dose BIIB074 alone): 1310 ng/mL
AUC(0-inf) [2, 4]: 26900 ng·h/mL
AUC(0-t) [2, 4]: 26500 ng·h/mL
Cmax [2, 4]: 1260 ng/mL
Elimination with valproic acid ([2]; in vivo): prolonged
Exposure (AUC) with valproic acid compared to BIIB074 alone ([2]; in vivo): increased
Exposure based on AUCinf and AUClast higher with valproic acid than alone ([2]; in vivo): ~70%
Change in Cmax with valproic acid compared to BIIB074 alone ([2]; in vivo, listed as BIIB074, hydrochloride): no change
Plasma exposure higher with valproic acid at steady state than alone ([2]; single dose): approximately 1.7 fold
